Values of other authors as cited in patent publication US20100209350A1, “Biomarkers for Adipose Tissue Activity” (priority 2008, published 2010).

Test system: adiponectin
Details: patient responding to the therapy; sample such as blood; general statement, no study described

## CN(C)C(=N)N=C(N)N [metformin]
  increase of adiponectin level from a reference value: about 20%
